From patent US12497397B2, “Pyrrole compounds useful as antifungals” (WIGEN BIOMEDICINE TECHNOLOGY (SHANGHAI) CO., LTD., priority 2019, dated 2025)
Converted amounts (≈) assume the structure as drawn.

Columns and labels:
Test in all cases: In vitro minimum inhibitory concentration (MIC) test
Assay type in all cases: cell-based
Settings in all cases: RPMI 1640, 35° C., 24-48 h, 485 nm, lowest concentration inhibiting growth more than 80%
Aspergillus terreus = tested on: Aspergillus terreus
Description: (§1) Example 20: In Vtro Minimum Inhibitory Concentration (MIC) Test Strains used in the experiment are inoculated on Sabouraud glucose agar culture medium and cultured at 35° C. for 5 d; then 1 mL of 0.2% Tween diluted with 0.85% sterile normal saline is added into Sabouraud dextrose agar culture medium, and plate is shaken, before solution collected from plate surface is transferred into sterile tube, and fungus containing supernatant is transferred into sterile tube in full suspension so as to prepare strain diluent with concentration from 0.4*10^6 to 5*10^6 CFU/mL. Strain diluent prepared herein is diluted into RPMI 1640 culture medium in a ratio of 1:100. Such biological suspension is added into hole on the plate which contains drug diluent; all plates are incubated at 35° C. for 24-48 h, and light in wavelength of 485 nm is monitored for each hole to evaluate strain growth. MIC of compound is defined as follows: Compared with negative control free of drug, the lowest drug concentration able to inhibit growth for more than 80% of strains. A indicates MIC value>0.1 μg/mL, B indicates 0.1 μg/mL≥MIC value>0.01 μg/mL, and C indicates MIC value<0.01 μg/mL.

Aspergillus flavus = tested on: Aspergillus flavus
Description: as §1

Aspergillus fumigatus = tested on: Aspergillus fumigatus
Description: as §1

Aspergillus niger = tested on: Aspergillus niger
Description: as §1

Question: What does the source list for `Cc1cc(C)nc(N2CCN3c4ccc(NC(=O)C(=O)c5c(-c6ccccc6)cc(C)n5C)cc4OC[C@H]3C2)c1` [Example 2-B]?
Answer: MIC (Aspergillus terreus): < 0.01 µg/mL; MIC (Aspergillus flavus): < 0.01 µg/mL; MIC (Aspergillus fumigatus): < 0.01 µg/mL; MIC (Aspergillus niger): < 0.01 µg/mL

Question: What does the source list for `Cc1cc(-c2ccccc2)c(C(=O)C(=O)Nc2ccc3c(c2)OC[C@@H]2CN(c4ncc(F)cn4)CCN32)n1C` [Example 1-A]?
Answer: MIC (Aspergillus terreus): < 0.01 µg/mL; MIC (Aspergillus flavus): < 0.01 µg/mL; MIC (Aspergillus fumigatus): < 0.01 µg/mL; MIC (Aspergillus niger): < 0.01 µg/mL

Question: `Cc1cc(C)nc(N2CCN3c4ccc(NC(=O)C(=O)c5c(-c6ccccc6)cc(C)n5C)cc4OCC3C2)c1` (stereo not drawn) [Example 2] was tested. Which MIC (Aspergillus terreus) did it give?
Answer: < 0.01 µg/mL

Question: What about the MIC (Aspergillus flavus) of the same compound?
Answer: < 0.01 µg/mL

Question: What about the MIC (Aspergillus fumigatus) of the same compound?
Answer: < 0.01 µg/mL

Question: And the MIC (Aspergillus niger)?
Answer: < 0.01 µg/mL

Question: For `Cc1cc(-c2ccccc2)c(C(=O)C(=O)Nc2ccc3c(c2)N(C)CC2CN(c4ncc(F)cn4)CCN32)n1C` (stereo not drawn) [Example 12], which MIC (Aspergillus terreus) is on record?
Answer: < 0.01 µg/mL

Question: What about the MIC (Aspergillus flavus) of the same compound?
Answer: 0.01 to 0.1 µg/mL (≈ 0.0185 to 0.185 µM)

Question: And the MIC (Aspergillus fumigatus)?
Answer: < 0.01 µg/mL

Question: And the MIC (Aspergillus niger)?
Answer: 0.01 to 0.1 µg/mL (≈ 0.0185 to 0.185 µM)

Question: For `Cc1cc(-c2ccccc2)c(C(=O)C(=O)Nc2ccc3c(c2)OCC2CN(CC(C)(C)C)CCN32)n1C` (stereo not drawn) [Example 8], which MIC (Aspergillus terreus) is on record?
Answer: < 0.01 µg/mL

Question: And the MIC (Aspergillus flavus)?
Answer: 0.01 to 0.1 µg/mL (≈ 0.02 to 0.2 µM)

Question: And the MIC (Aspergillus fumigatus)?
Answer: < 0.01 µg/mL

Question: And the MIC (Aspergillus niger)?
Answer: 0.01 to 0.1 µg/mL (≈ 0.02 to 0.2 µM)

Question: Which MIC (Aspergillus terreus) does the source give for `CCn1c(C)cc(-c2ccccc2)c1C(=O)C(=O)Nc1ccc2c(c1)OCC1CN(c3ncc(F)cn3)CCN21` (stereo not drawn) [Example 14] here?
Answer: < 0.01 µg/mL

Question: And the MIC (Aspergillus flavus)?
Answer: < 0.01 µg/mL

Question: What about the MIC (Aspergillus fumigatus) of the same compound?
Answer: < 0.01 µg/mL

Question: What about the MIC (Aspergillus niger) of the same compound?
Answer: 0.01 to 0.1 µg/mL (≈ 0.0185 to 0.185 µM)

Question: How did the MIC (Aspergillus terreus) turn out when `Cc1cc2c(cc1NC(=O)C(=O)c1c(-c3ccccc3)cc(C)n1C)OCC1CN(c3ncc(F)cn3)CCN21` (stereo not drawn) [Example 10] was run?
Answer: 0.01 to 0.1 µg/mL (≈ 0.0185 to 0.185 µM)

Question: And the MIC (Aspergillus flavus)?
Answer: 0.01 to 0.1 µg/mL (≈ 0.0185 to 0.185 µM)

Question: And the MIC (Aspergillus fumigatus)?
Answer: 0.01 to 0.1 µg/mL (≈ 0.0185 to 0.185 µM)

Question: And the MIC (Aspergillus niger)?
Answer: 0.01 to 0.1 µg/mL (≈ 0.0185 to 0.185 µM)

Question: With `Cc1cc(C)nc(N2CCN3c4ccc(NC(=O)C(=O)c5c(-c6ccccc6)cc(C)n5C)cc4N(C)C[C@@H]3C2)c1` [Example 13-A] as the compound, how does the MIC (Aspergillus terreus) read?
Answer: < 0.01 µg/mL

Question: What about the MIC (Aspergillus flavus) of the same compound?
Answer: 0.01 to 0.1 µg/mL (≈ 0.0182 to 0.182 µM)

Question: What about the MIC (Aspergillus fumigatus) of the same compound?
Answer: < 0.01 µg/mL

Question: What about the MIC (Aspergillus niger) of the same compound?
Answer: 0.01 to 0.1 µg/mL (≈ 0.0182 to 0.182 µM)

Question: With `Cc1cc(C)nc(N2CCN3c4ccc(NC(=O)C(=O)c5c(-c6ccccc6)cc(C)n5C)cc4OC[C@@H]3C2)c1` [Example 2-A] as the compound, how does the MIC (Aspergillus terreus) read?
Answer: < 0.01 µg/mL

Question: What about the MIC (Aspergillus flavus) of the same compound?
Answer: < 0.01 µg/mL

Question: And the MIC (Aspergillus fumigatus)?
Answer: < 0.01 µg/mL

Question: What about the MIC (Aspergillus niger) of the same compound?
Answer: < 0.01 µg/mL

Question: Which results are given for `Cc1cc(C)nc(N2CCN3c4ccc(NC(=O)C(=O)c5c(-c6ccccc6)cc(C)n5C)cc4N(C)C[C@H]3C2)c1` [Example 13-B]?
Answer: MIC (Aspergillus terreus): < 0.01 µg/mL; MIC (Aspergillus flavus): 0.01 to 0.1 µg/mL (≈ 0.0182 to 0.182 µM); MIC (Aspergillus fumigatus): < 0.01 µg/mL; MIC (Aspergillus niger): 0.01 to 0.1 µg/mL (≈ 0.0182 to 0.182 µM)

Question: How did the MIC (Aspergillus terreus) turn out when `Cc1cc(-c2ccccc2)c(C(=O)C(=O)Nc2ccc3c(c2)N(C)C[C@@H]2CN(c4ncc(F)cn4)CCN32)n1C` [Example 12-A] was run?
Answer: < 0.01 µg/mL

Question: What about the MIC (Aspergillus flavus) of the same compound?
Answer: < 0.01 µg/mL

Question: And the MIC (Aspergillus fumigatus)?
Answer: < 0.01 µg/mL

Question: And the MIC (Aspergillus niger)?
Answer: < 0.01 µg/mL

Question: `Cc1cc(-c2ccccc2)c(C(=O)C(=O)Nc2cc3c(cc2F)N2CCN(c4ncc(F)cn4)CC2CO3)n1C` (stereo not drawn) [Example 9] was tested. Which MIC (Aspergillus terreus) did it give?
Answer: < 0.01 µg/mL

Question: And the MIC (Aspergillus flavus)?
Answer: < 0.01 µg/mL

Question: And the MIC (Aspergillus fumigatus)?
Answer: < 0.01 µg/mL

Question: What about the MIC (Aspergillus niger) of the same compound?
Answer: < 0.01 µg/mL

Question: Which results are given for `COCCn1c(C)cc(-c2ccccc2)c1C(=O)C(=O)Nc1ccc2c(c1)OCC1CN(c3ncc(F)cn3)CCN21` (stereo not drawn) [Example 16]?
Answer: MIC (Aspergillus terreus): < 0.01 µg/mL; MIC (Aspergillus flavus): < 0.01 µg/mL; MIC (Aspergillus fumigatus): 0.01 to 0.1 µg/mL (≈ 0.0175 to 0.175 µM); MIC (Aspergillus niger): < 0.01 µg/mL

Question: With `Cc1cc(-c2ccccc2)c(C(=O)C(=O)Nc2ccc3c(c2)OCC2CN(c4ncc(F)cn4)CCN32)n1C` (stereo not drawn) [Example 1] as the compound, how does the MIC (Aspergillus terreus) read?
Answer: < 0.01 µg/mL

Question: And the MIC (Aspergillus flavus)?
Answer: < 0.01 µg/mL

Question: And the MIC (Aspergillus fumigatus)?
Answer: < 0.01 µg/mL

Question: What about the MIC (Aspergillus niger) of the same compound?
Answer: < 0.01 µg/mL

Question: With `Cc1cc(C)nc(N2CCN3c4ccc(NC(=O)C(=O)c5c(-c6ccccc6)cc(C)n5C)cc4N(C)CC3C2)c1` (stereo not drawn) [Example 13] as the compound, how does the MIC (Aspergillus terreus) read?
Answer: < 0.01 µg/mL

Question: And the MIC (Aspergillus flavus)?
Answer: 0.01 to 0.1 µg/mL (≈ 0.0182 to 0.182 µM)

Question: What about the MIC (Aspergillus fumigatus) of the same compound?
Answer: < 0.01 µg/mL

Question: And the MIC (Aspergillus niger)?
Answer: 0.01 to 0.1 µg/mL (≈ 0.0182 to 0.182 µM)

Question: What does the source list for `Cc1cc(-c2ccccc2)c(C(=O)C(=O)Nc2ccc3c(c2)OC[C@H]2CN(c4ncc(F)cn4)CCN32)n1C` [Example 1-B]?
Answer: MIC (Aspergillus terreus): < 0.01 µg/mL; MIC (Aspergillus flavus): < 0.01 µg/mL; MIC (Aspergillus fumigatus): < 0.01 µg/mL; MIC (Aspergillus niger): < 0.01 µg/mL

Question: With `Cc1cc(-c2ccccc2)c(C(=O)C(=O)Nc2ccc3c(c2)N(C)C[C@H]2CN(c4ncc(F)cn4)CCN32)n1C` [Example 12-B] as the compound, how does the MIC (Aspergillus terreus) read?
Answer: < 0.01 µg/mL

Question: What about the MIC (Aspergillus flavus) of the same compound?
Answer: < 0.01 µg/mL

Question: What about the MIC (Aspergillus fumigatus) of the same compound?
Answer: < 0.01 µg/mL

Question: What about the MIC (Aspergillus niger) of the same compound?
Answer: < 0.01 µg/mL

Question: How did the MIC (Aspergillus terreus) turn out when `CCC(C)n1ncn(-c2ccc(N3CCN(c4ccc(OCC5COC(Cn6cncn6)(c6ccc(Cl)cc6Cl)O5)cc4)CC3)cc2)c1=O` (stereo not drawn) [Itraconazole, reference compound] was run?
Answer: > 0.1 µg/mL

Question: What about the MIC (Aspergillus flavus) of the same compound?
Answer: > 0.1 µg/mL

Question: What about the MIC (Aspergillus fumigatus) of the same compound?
Answer: > 0.1 µg/mL

Question: What about the MIC (Aspergillus niger) of the same compound?
Answer: > 0.1 µg/mL
